Laboratory results: paper PMC7795096, “LPMO AfAA9_B and Cellobiohydrolase AfCel6A from A. fumigatus Boost Enzymatic Saccharification Activity of Cellulase Cocktail” (International Journal of Molecular Sciences, 2020)
pIC50: −log10 of the molar value.

Target: T1, AfCel6A (Aspergillus fumigatus, UniProt Q4WFK4)
T1 construct: gene cbhC; without predicted signal peptide (forward primer encodes QQTVW start) in pPICZαA, with N-terminal CBM1, His6 tag kept, secreted by Pichia pastoris X-33, about 65 kDa
T1 sequence (Q4WFK4 20-454): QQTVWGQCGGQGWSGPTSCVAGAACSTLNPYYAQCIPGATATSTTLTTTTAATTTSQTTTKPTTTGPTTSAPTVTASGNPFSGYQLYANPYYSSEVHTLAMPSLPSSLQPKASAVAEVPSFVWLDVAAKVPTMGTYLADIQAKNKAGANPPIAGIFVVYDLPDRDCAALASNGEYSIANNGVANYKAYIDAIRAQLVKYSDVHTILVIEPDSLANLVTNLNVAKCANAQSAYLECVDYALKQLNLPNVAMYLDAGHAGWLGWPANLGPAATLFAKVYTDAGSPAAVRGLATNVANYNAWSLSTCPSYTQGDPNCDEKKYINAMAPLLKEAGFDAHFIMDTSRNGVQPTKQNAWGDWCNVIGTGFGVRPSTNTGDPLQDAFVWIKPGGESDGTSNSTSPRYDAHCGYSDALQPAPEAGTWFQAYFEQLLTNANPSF
Assay: activity at rising sugar concentration ([…]), substrate 4-nitrophenyl β-D-cellobioside
Format: biochemical
Conditions: product inhibition; the text also states 50% inhibition at 100 mM

In the case of `OC[C@H]1O[C@@H](O[C@H]2[C@H](O)[C@@H](O)C(O)O[C@@H]2CO)[C@H](O)[C@@H](O)[C@@H]1O` (stereo partly shown) [cellobiose], the pIC50 was less than 1.00.
